Here are results for one substance from patent publication US20250145715A1, “B7-H3 TARGETING FUSION PROTEINS AND METHODS OF USE THEREOF” (GT Biopharma, Inc., priority 2021, published 2025).

Assay [1] has as its system LNCaP prostate cancer cells. As to the kind of experiment: NK cell CD107a / IFNγ flow cytometry against LNCaP. The class given is cell-based, human. The following applies: normal donor and prostate cancer patient NK cells, vs controls. The text has this: FIG. 15A is a graph showing pooled analysis of proportion of NK cells from healthy donors or prostate cancer patients expressing CD107a+ (top) or IFNγ (bottom) against C4-2 targets (N=9 for healthy donors, N=3 for patients). FIG. 15B is a graph showing pooled analysis of proportion of NK cells from healthy donors or prostate cancer patients expressing CD107a+ (top) or IFNγ (bottom) against DU145 targets (N=9 for healthy donors, N=3 for patients). FIG. 15C is a graph showing pooled analysis of proportion of NK cells from healthy donors or prostate cancer patients expressing CD107a+ (top) or IFNγ (bottom) against LNCaP targets (N=9 for healthy donors, N=3 for patients). FIG. 15D is a graph showing pooled analysis of proportion of NK cells from healthy donors or prostate cancer patients expressing CD107a+ (top) or IFNγ (bottom) against PC3 targets (N=9 for healthy donors, N=3 for patients). * p<0.05, ** p<0.01, *** p<0.001, and **** p<0.0001.
ADCC was measured in a flow cytometry assay by evaluating degranulation via CD107a (lysosomal-associated membrane protein LAMP-1) and intracellular IFNγ production. Upon thawing, normal donor and patient-derived PBMCs or ascites cells were rested overnight (37° C., 5% CO2) in RPMI 1640 media supplemented with 10% fetal calf serum (RPMI-10). […] Samples were washed and evaluated in an LSRII flow cytometer (BD Biosciences, San Jose, CA, USA). […]

The subject of another assay is OVCAR8 cells. As to the kind of experiment: IncuCyte real-time tumor-killing assay, OVCAR8. The format is cell-based, human. The following applies: enriched NK cells, E:T 2:1, 30 nM, 48 h; vs controls. The procedure:
Healthy donor or ovarian cancer PBMC cells were incubated with ovarian tumor targets at 2:1 E:T ratio for 4 hrs with 30 nM TriKE or control condition. FIG. 30A is a graph illustrating pooled proportion of NK cells from healthy donors expressing CD107a+ (degranulation) against OVCAR8 targets (N=8). FIG. 30B is a graph illustrating pooled proportion of NK cells from healthy donors expressing IFNγ cytokine production against OVCAR8 targets (N=8). FIG. 30C is a graph illustrating pooled proportion of NK cells from healthy donors expressing CD107a+ (degranulation) against OVCAR3 targets (N=4). […] FIG. 30I is a graph illustrating that tumor killing was evaluated using IncuCyte imaging assay. […] The percentage of Live (Nuclight Red+Caspase 3/7−) tumor cells was quantified over a 48-h period and normalized to tumor alone. Readings were obtained every 15 min (representative of four separate experiments). * p<0.05, ** p<0.01, *** p<0.001, and **** p<0.0001.
Tumor killing was evaluated in real-time using the IncuCyte platform. […] Caspase-3/7 green dye (Sartorious, Ann Arbor, MI, USA) was added to pick up dying cells that have not yet lost NuclightRed fluorescence. […] Images from three technical replicates were taken every 15 min for 48 h using a 4× objective lens and then analyzed using IncuCyte™ Basic Software v2018A (Sartorious). […]

For “cam1615B7-H3: second-generation TriKE: humanized camelid anti-CD16 VHH, human wild-type IL-15, anti-B7-H3 mAb 376.96 scFv; SEQ ID NO:1”, in assay [1], the “NK cell IFNγ production against LNCaP” value is listed as “enhanced” and the “NK cell degranulation (CD107a) against LNCaP” value was “enhanced”. The “killing of OVCAR8 tumor cells over two days” value in the assay with OVCAR8 cells was “robust and rapid tumor killing”.
